We go through 11 molecules from ChEMBL document CHEMBL1201862, “PubChem BioAssay data set” (2004).

Test [1] in a line: off-target signal loss in HeLa-CEM21 co-culture – HeLa F-luc CTL cells, cherry-picked, counter-screen for HIV-1 Env fusion inhibitor project, dose response (AID 652040).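 Note: potency for signal decrease marking cytotoxic or nonspecific inhibition.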 In kind it is functional, cell-based. (In general: A counterscreen serves to expose hits that act by an unwanted route or on another target.)
The target in test [2] is Heat shock protein HSP 90-alpha (Homo sapiens, UniProt P07900). In kind it is functional, organism-based.
The nature of test [3]: THP-1 cell cytotoxicity, dose response, cytotoxicity control for non-replicating M. tuberculosis project (AID 489025). Type of test: functional.
Test [4] can be described thus: blockers of HIV-1 envelope-mediated cell-cell fusion – cherry-pick, dose response (AID 652057). In kind it is functional, cell-based.
Test [5] in a line: HIV-1 AD8 envelope cell-cell fusion blockers – cherry-pick, dose response (AID 652062).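 Note: luciferase signal from cell-cell fusion driven by HIV-1 clade B AD8 Env; potency is for inhibitors of fusion seen as a drop in luminescence.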 Type of test: functional, cell-based.
Test [6] can be described thus: microbe, parasite or virus in culture. In kind it is functional. The settings on record: Mycobacterium tuberculosis.
The next test is described as follows: cells. Type of test: functional.
Test [7] in a line: viability of HCT116 lacking mutant beta-catenin – cell-based, human colon tumor, dose response (AID 1045).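 Note: HCT116 colon tumor cells with beta catenin knocked out; cells exposed to compound for 60 hours.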 In kind it is functional.
Test [8] is described as follows: viability of PTEN-deleted HCT116 cells – cell-based, HCT116 PTEN knockout, dose response (AID 1047).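 Note: HCT116 colon tumor cells with PTEN knocked out; cells exposed to compound for 60 hours before readout; potency for loss of cell viability measured by luminescence.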 In kind it is functional.
A further test has as its system Streptococcus. The test is described as follows: GAS UMAA2166 growth inhibition – luminescence, BacTiterGlo, counter-screen for streptokinase expression inhibitor project, dose response (AID 1915).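 Note: potency for reduction of bacterial viability or growth.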 In kind it is functional, organism-based.
Another test concerns the target T1, Streptokinase A (Streptococcus pyogenes serotype M1, UniProt P10520).
T1 sequence (P10520 whole entry): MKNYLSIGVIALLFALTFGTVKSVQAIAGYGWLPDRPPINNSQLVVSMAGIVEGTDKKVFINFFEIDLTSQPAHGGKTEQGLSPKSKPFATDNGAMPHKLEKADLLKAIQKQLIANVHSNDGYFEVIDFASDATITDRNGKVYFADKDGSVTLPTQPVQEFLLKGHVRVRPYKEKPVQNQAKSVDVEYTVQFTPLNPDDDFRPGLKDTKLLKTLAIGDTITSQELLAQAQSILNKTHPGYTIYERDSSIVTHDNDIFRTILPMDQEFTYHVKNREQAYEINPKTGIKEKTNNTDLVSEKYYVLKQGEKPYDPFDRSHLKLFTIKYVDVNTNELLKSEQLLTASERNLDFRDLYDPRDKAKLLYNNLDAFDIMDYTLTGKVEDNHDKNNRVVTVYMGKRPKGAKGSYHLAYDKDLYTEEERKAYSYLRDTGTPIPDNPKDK
Put plainly: viability-normalized secreted streptokinase activity reduction – plasminogen activation absorbance, OD405, dose response (AID 1914).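 Note: secreted streptokinase activity via plasminogen activation per viability signal from cell pellet.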 In kind it is functional, Streptococcus pyogenes M1 GAS.

The subject of test [9] is Streptococcus sp. 'group A'. The test is described as follows: Streptococcus pyogenes SK(-)GAS viability under kanamycin – luminescence, BacTiterGlo, confirmation, counter-screen for streptokinase expression inhibitor project, dose response (AID 1900). Type of test: functional, organism-based.

The source made the active and inactive calls.

Take `O=C(Nc1cccc(OC(=O)N2CCOCC2)c1)N1CCOCC1`: in test [1], the AC50 is > 70 µM (inactive).
Take `COc1ccc(NC2CCN(C3CC(=O)N(c4ccc(F)c(Cl)c4)C3=O)CC2)cc1` (centres undefined): the AC50 in [2] is 4.11 µM (active).
With `CCOC(=O)/C(=C/c1ccc(OC(=O)c2ccccc2)cc1)C(C)=O`, in test [2], the AC50 is 2.06 µM (active).
For `O=C(Nc1nccs1)c1ccc(COc2ccc(Cl)cc2)o1`, in test [3], the CC50 is > 40 µM (active).
As for `O=C/C(=N\Nc1cccc(C(F)(F)F)c1)C(=O)c1ccccc1`, the AC50 in test [2] was 6.15 µM (active).
As for `C[C@H]1CN([C@@H](C)CO)S(=O)(=O)c2ccc(C3=CCCC3)cc2O[C@H]1CN(C)Cc1ccccc1`, the AC50 in test [4] is 18.5 µM (active); in test [5], 25.1 µM (active).
In the case of `Cc1cccc(-c2ncc(CN3CCC(CO)(CCCc4ccccc4)CC3)cn2)c1`, the CC50 in test [6] is > 40 µM (active).
With `CCCOc1ccc(-c2nc(C#N)c(NCCCn3ccnc3)o2)cc1`, the IC50 in the test “cells” is 22.4 µM (active). In addition, in test [3], the CC50 is 27.6 µM (active). Besides, the half-maximal effective concentration (EC50) in [7] is 10.2 µM (active); in test [8] it was 61.8 µM (active).
On to `CN(CC(=O)Nc1ccccc1Br)C(=O)c1cccnc1Nc1cccc(C(F)(F)F)c1`, for which, in test [6], the CC50 is 19.9 µM (active).
For `C(=NN=C1c2ccccc2-c2ccccc21)c1c[nH]c2ccccc12`, the AC50 in test [2] was 5.17 µM (active).
In the case of `Cc1n[nH]c(C)c1CCOc1ccc(C(C)C)cc1`, the IC50 in “cells” is 12.2 µM (active). Further, the EC50 in the test on Streptococcus is 43.6 µM (active); at Streptokinase A, > 150 µM (not active); in test [9], 25.1 µM (active). For the same molecule, the CC50 in test [3] is > 40 µM (active).

Usually AC50 stands for the concentration at which the activity in the assay is half-maximal. For orientation: IC50 means the concentration that inhibits the measured activity by half. A word on the EC50: it is the concentration that produces a half-maximal response.
